Measurements reported in US12605305B2, “Application of citrate metal salt in endodontic treatment, and formulation obtained by preparation” (KUNMING QINGCHENG HEALTHCARE TECH LTD., priority 2020, dated 2026).
Entries after “also recorded” stand apart in the source; their conditions may differ. Like-named read-outs stand apart in the source and are kept apart here.

Legend:
[1] = Compatibility of cationic antibacterial agent with sodium citrate solution; format: physicochemical; details: for Phenomenon (compatibility with sodium citrate solution): 20% sodium citrate solution mixed 1:1 with 0.2% agent solution, room temperature, dark, 7 days
Procedure: (§1) Materials to be tested: sodium citrate, potassium citrate, lithium citrate, citric acid, EDTA-2Na.
(§2) Each of the citric acid metal salts to be tested was prepared as a 20% aqueous solution; the citric acid to be tested was prepared as a 20% aqueous solution; the EDTA-2Na to be tested was prepared as a 10% aqueous solution; and the cationic antibacterial agent to be tested was prepared as a 0.2% aqueous solution. Each of the prepared aqueous solutions of citrate metal salt (or citric acid aqueous solutions) was mixed with each of the prepared aqueous solutions of cationic antibacterial agent to be tested at a ratio of 1:1.
(§3) All the mixed solutions were stored at room temperature in dark and left standing for 7 days before observation.

[2] = Compatibility of cationic antibacterial agent with potassium citrate solution; format: physicochemical; details: for Phenomenon (compatibility with potassium citrate solution): 20% potassium citrate solution mixed 1:1 with 0.2% agent solution, room temperature, dark, 7 days
Procedure: as §1, §2, §3

[3] = Compatibility of cationic antibacterial agent with lithium citrate solution; format: physicochemical; details: for Phenomenon (compatibility with lithium citrate solution): 20% lithium citrate solution mixed 1:1 with 0.2% agent solution, room temperature, dark, 7 days
Procedure: as §1, §2, §3

[4] = Compatibility of cationic antibacterial agent with citric acid solution; format: physicochemical; details: 20% citric acid solution mixed 1:1 with 0.2% agent solution, room temperature, dark, 7 days
Procedure: as §1, §2, §3

[5] = Compatibility of cationic antibacterial agent with EDTA-2Na solution; format: physicochemical; details: 10% EDTA-2Na solution mixed 1:1 with 0.2% agent solution, room temperature, dark, 7 days
Procedure: as §1, §2, §3

[6] = cited from earlier work
[7] = Evaluation of the effect of removing smear layer in vitro (SEM of treated root canal specimens)
Text: Healthy single premolars that need to be extracted for the purpose of clinical orthodontic extraction. Patient age: 14-25 years old. Inclusion criteria: single upright unobstructed root canal, fully developed apical foramen, no near-pulp caries or near-pulp fillings, no history of pulp therapy, no apical root resorption, no root fracture, and other defects, and no periodontal disease.
The soft tissue and calculus around the root of the isolated teeth were removed. The isolated teeth were cleaned and packed for high-temperature and high-pressure steam sterilization. Three sterilized isolated teeth were taken randomly and placed in 10 ml of BHI liquid culture medium, cultured at 37° C. for 24 h, and then taken out. With the naked eye, if the BHI liquid culture medium remains transparent, it is considered that the sterilization effect is reliable. If the BHI liquid culture medium is turbid, it is necessary to re-disinfect all samples and repeat the above steps. After confirmation of successful sterilization, the samples were stored at room temperature for later use.
The pulp chamber of the isolated teeth confirmed to be successfully sterilized was opened using a high-speed hand-piece with an emery ball bit with a diameter of 0.5 mm. After pulp extirpation, the root canal was dredged with an ISO standard #10 stainless steel hand K file, until the file tip that just penetrated the apical foramen was seen. The file was measured for length, from which 0.5 mm was subtracted to establish the working length of the root canal. Then the root canal preparation was performed using a Protaper Universal Engine with Nickel-titanium root canal file to 25/06. […]

[8] = root canal treated for 5 minutes

| Compound | Phenomenon (compatibility with sodium citrate solution) [1] | Phenomenon (compatibility with potassium citrate solution) [2] | Phenomenon (compatibility with lithium citrate solution) [3] | Phenomenon (compatibility with citric acid solution) [4] | Phenomenon (compatibility with EDTA-2Na solution) [5] | pH value ([6]; 5% citric acid solution) | pH value ([6]; 10% citric acid solution) | compatibility with sodium citrate (conclusion in words) [1] | compatibility with potassium citrate (conclusion in words) [2] | compatibility with lithium citrate (conclusion in words) [3] | effect of removing the smear layer [7, 8] | effect of removing the smear layer ([7]; treatment time as per figures (1, 5 and/or 10 min) or not stated) |
| --- | --- | --- | --- | --- | --- | --- | --- | --- | --- | --- | --- | --- |
| CC(=O)O.CC(=O)O.NC(=N\CCCCCC/N=C(N)/N=C(\N)Nc1ccc(Cl)cc1)/N=C(\N)Nc1ccc(Cl)cc1 [chlorhexidine acetate, reference compound] | + | + | + | + | + |  |  |  |  |  |  |  |
| N=C(NCCCCCCNC(=N)NC(=N)Nc1ccc(Cl)cc1)NC(=N)Nc1ccc(Cl)cc1.O=C(O)[C@H](O)[C@@H](O)[C@H](O)[C@H](O)CO.O=C(O)[C@H](O)[C@@H](O)[C@H](O)[C@H](O)CO [chlorhexidine gluconate, reference compound] | + | + | + | + | + |  |  |  |  |  |  |  |
| O=C(O)CC(O)(CC(=O)O)C(=O)O [citric acid] |  |  |  |  |  | 1.93 | 1.91 |  |  |  |  |  |
| CCCCCCCCCCCC[N+](C)(C)Cc1ccccc1.[Br-] [dodecyl dimethyl benzyl ammonium bromide] | − | − | − | − | − |  |  | compatible | compatible | compatible |  |  |
| CCCCCCCCCCCC[N+](C)(C)Cc1ccccc1.[Cl-] [dodecyl dimethyl benzyl ammonium chloride] | − | − | − | − | − |  |  | compatible | compatible | compatible |  |  |
| CCCCCCCCCCCC[N+](C)(C)C.[Cl-] [dodecyl trimethyl ammonium chloride] | − | − | − | − | − |  |  | compatible | compatible | compatible |  |  |
| CCCCCCCCCCCCCCCC[n+]1ccccc1.[Cl-] [hexadecyl pyridinium chloride, reference compound] | − | − | − | − | − |  |  | compatible | compatible | compatible |  |  |
| O=P([O-])([O-])OP(=O)([O-])[O-].[K+].[K+].[K+].[K+] [potassium pyrophosphate] |  |  |  |  |  |  |  |  |  |  | could not improve the effect of the formulation on removing the smear layer |  |
| O=P(O)(O)OP(=O)(O)OP(=O)(O)O [sodium tripolyphosphate] |  |  |  |  |  |  |  |  |  |  | not helpful for sodium citrate to improve the effect of removing the smear layer | cannot be effective in removing the smear layer; also recorded: very poor effect of removing the smear layer |
| N-cocoyl-L-arginine ethyl ester-DL-pyrrolidone carboxylate | + | + | + | + | + |  |  |  |  |  |  |  |
| polydimethyl diallyl ammonium chloride | − | − | − | − | − |  |  | compatible | compatible | compatible |  |  |
| polyhexamethyl guanidine hydrochloride | + | + | + | + | + |  |  |  |  |  |  |  |
| polyhexamethylene biguanide hydrochloride | + | + | + | + | + |  |  |  |  |  |  |  |
